Values quoted from earlier work as cited in patent publication US20150040249A1, “Non-Human Animal Models of Depression and Methods of Use Thereof” (The Board of Trustees of the Leland Stanford Junior …, priority 2012, published 2015).

Columns and labels:
[1] = rats; in vivo electrophysiological recordings
NMDAR = conditions: humans; acute

SMILES | reduced bursting activity in depression models [1] | depression-like symptoms (NMDAR)
CNCCCN1c2ccccc2CCc2ccccc21 [desipramine] | restored | –
CNC1(c2ccccc2Cl)CCCCC1=O (centres unmarked) [ketamine] | – | can acutely improve depression-like symptoms
